Source: US12351581B2, “Compounds for FGFR inhibition” (Cogent Biosciences, Inc., priority 2023, dated 2025)
Where two headings read alike, the source gives them in different places.

Tests used:
[1] = target: FGFR2-WT (Homo sapiens, UniProt P21802); experiment: Phosphorylated FGFR2-WT (pFGFR2-WT) cell assay, KATOIII cells; type: cell-based; conditions: 1 hour incubation, phospho FGFR2 HTRF
Procedure: KATOIII cells were grown in the appropriate growth medium, IMDM supplemented with 20% fetal bovine serum. Cells were seeded into a 384-well at 1×10^5 cells/25 μL/well. Cells were treated with compound using three-fold serial dilutions at final concentrations ranging from 10 μM to 0.5 nM. Compound was incubated on cells for 1 hour at 37° C., 5% CO2.
Following the 1-hour incubation with compounds, cell lysates were prepared and phospho FGFR2 was measured using the HTRF Phospho-FGFR2 (TYR653/654) Detection Kits (CisBio, cat #64FGFR2Y6PEG). 8 μL of cell lysis buffer (4×) supplied with 1× Phospho and Total protein blocking reagent (CisBio, cat #64FGFR2Y6PEG, CisBio, cat #64KB1AAC) was then added to the wells. Cells were incubated with lysis buffer for 40 minutes at 4° C. under shaking conditions. Plates were centrifuged at 1500 rpm for 3 min and then 16 μL of cell lysate was transferred from the cell-culture plate to a small volume detection plate with the added premixed antibody solutions (4 μL) (CisBio, cat #64FGFR2Y6PEG). Plates were centrifuged at 1000 rpm for 1 min then incubated at 25° C. for 120 min, then overnight at 4° C. Plates were read on the En Vision multimode plate reader via HTRF dual wavelength detection. One hundred percent of control (POC) was determined using DMSO treated samples, and 0 POC was determined using the top concentration of a control compound. A 4-parameter logistic curve was fit to the POC values as a function of compound concentration to determine the IC50 value.

[2] = target: T1, FGFR2 N549H (Homo sapiens, UniProt P21802, N549H); experiment: FGFR mutant enzyme assay (HTRF KinEASE-TK); type: biochemical; conditions: ATP 0.9 uM
T1 construct: biochemical assays using purified intracellular domains of the respective isoforms; purchased Carna Bioscience 08-532
T1 sequence (P21802 399-821 N549H limits assumed): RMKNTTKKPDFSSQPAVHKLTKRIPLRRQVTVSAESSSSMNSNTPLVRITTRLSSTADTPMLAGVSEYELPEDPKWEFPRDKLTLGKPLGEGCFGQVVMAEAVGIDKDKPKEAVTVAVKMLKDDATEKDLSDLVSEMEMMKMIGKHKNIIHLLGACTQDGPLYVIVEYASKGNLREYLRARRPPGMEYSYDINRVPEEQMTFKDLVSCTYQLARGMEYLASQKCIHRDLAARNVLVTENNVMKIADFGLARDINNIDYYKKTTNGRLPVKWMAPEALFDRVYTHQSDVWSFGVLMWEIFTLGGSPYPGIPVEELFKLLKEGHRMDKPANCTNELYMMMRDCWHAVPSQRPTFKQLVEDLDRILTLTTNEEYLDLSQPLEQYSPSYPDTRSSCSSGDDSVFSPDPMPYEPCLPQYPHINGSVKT
Procedure: (§1) Activity against FGFR wild type and mutant enzymes were determined in biochemical assays using purified intracellular domains of the respective isoforms using HTRF KinEASE-TK assay technology from CisBio, now PerkinElmer. (Catalogue number 62TK0PEC). Briefly test compounds were tested in 11 point 1:3 serial dilutions, typical final concentration range from 10,000 nM to 0.17 nM. Test compounds were dissolved in DMSO and added to assay plates using acoustic transfer. Enzyme was pre-incubated with test compound for 30 minutes and the assay was initiated by addition of ATP and TK-peptide substrate. After 60 minutes at room temperature the reaction was quenched with detection reagent and incubated for an additional 60 minutes at room temperature. The plates were read using a multimode reader and the emission ratio of 665 nm to 615 nm was determined. This ratio was converted to percent of control (POC). [1-(high control-sample signal)/(high control-low control)]*100. Wells without compound were used to determine high control values and wells without enzyme were used to determine low control values. The POC values were fit using a four-parameter logistic model and the value where the fit curve was equal to 50 POC was reported as the IC50 using the Signals Vitro Vivo software package (PerkinElmer). Final assay conditions were: 50 mM HEPES pH7.5, 10 mM MgCl2, 1 mM EDTA, 0.01% Brij-35, 2 mM MnCl2, 1 mM DTT, and 0.5 uM TK-peptide. The enzyme source, catalogue number, final enzyme concentration, and final ATP concentration can be found in the tables 1-2 below.

[3] = target: T2, FGFR2 V564I (Homo sapiens, UniProt P21802, V564I); experiment: FGFR mutant enzyme assay (HTRF KinEASE-TK); type: biochemical; conditions: ATP 0.4 uM
T2 construct: biochemical assays using purified intracellular domains of the respective isoforms; purchased Carna Bioscience 08-546
T2 sequence (P21802 399-821 V564I limits assumed): as the sequence (P21802 399-821 N549H limits assumed) above, with H151N, V166I counted along it
Procedure: as §1

[4] = target: T3, FGFR2 V564F (Homo sapiens, UniProt P21802, V564F); experiment: FGFR mutant enzyme assay (HTRF KinEASE-TK); type: biochemical; conditions: ATP 1.5 uM
T3 construct: biochemical assays using purified intracellular domains of the respective isoforms; purchased SignalChem Biotech F05-12FG
T3 sequence (P21802 399-821 V564F limits assumed): as the sequence (P21802 399-821 N549H limits assumed) above, with H151N, V166F counted along it
Procedure: as §1

[5] = target: T4, FGFR2 (Homo sapiens, UniProt P21802); experiment: FGFR wild type enzyme assay (HTRF KinEASE-TK); type: biochemical; conditions: ATP 2 uM
T4 construct: biochemical assays using purified intracellular domains of the respective isoforms; purchased Carna Bioscience 08-134
T4 sequence (P21802 399-821 limits assumed): as the sequence (P21802 399-821 N549H limits assumed) above, with H151N counted along it
Procedure: as §1

[6] = compound table after the examples, read-out: Enz FGFR2

FGFR2-WT, sequence (P21802 430-767 limits assumed): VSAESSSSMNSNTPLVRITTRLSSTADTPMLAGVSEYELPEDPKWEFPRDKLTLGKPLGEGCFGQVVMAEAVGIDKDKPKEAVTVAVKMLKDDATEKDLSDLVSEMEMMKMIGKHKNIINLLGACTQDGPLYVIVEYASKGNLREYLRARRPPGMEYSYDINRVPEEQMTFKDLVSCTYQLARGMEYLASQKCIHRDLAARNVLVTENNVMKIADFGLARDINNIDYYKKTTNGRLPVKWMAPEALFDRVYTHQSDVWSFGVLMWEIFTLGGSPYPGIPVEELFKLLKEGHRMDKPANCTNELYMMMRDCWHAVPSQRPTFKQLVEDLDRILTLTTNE

| SMILES | IC50 [1] [nM] | IC50 [2] [nM] | IC50 [3] [nM] | IC50 [4] [nM] | IC50 ([5]; Table 3, read-out: FGFR2 Enz) [nM] | IC50 [5, 6] [nM] |
| --- | --- | --- | --- | --- | --- | --- |
| Cc1nn([C@H]2CCCNC2)c(C)c1-c1cc(O[C@H](C)c2ncccc2F)c2c(C#N)cnn2c1 [Compound 11, 6-(3,5-dimethyl-1-((S)-piperidin-3-yl)-1H-pyrazol-4-yl)-4-((R)-1-(3-fluoropyridin-2-yl)ethoxy)pyrazolo[1,5-a]pyridine-3-carbonitrile] | 23 | 4.6 | 5.8 | 4.4 | 1.4 | 0.5 |
| Cc1c(-c2cc(O[C@H](C)c3ccc(F)cn3)c3c(C#N)cnn3c2)cnn1[C@H]1CC[C@H](O)CC1 [Compound 1, 4-[(1R)-1-(5-fluoro-2-pyridyl)ethoxy]-6-[1-(4-hydroxycyclohexyl)-5-methyl-pyrazol-4-yl]pyrazolo[1,5-a]pyridine-3-carbonitrile] | 3.4 | 0.4 | 1.4 | 1 | 0.3 | 0.3 |
| CN=S1(=O)CCC(n2cc(-c3cc(O[C@H](C)c4ccc(F)cn4)c4c(C#N)cnn4c3)cn2)CC1 (stereo partly drawn) [Compound 58, (R)-4-(1-(5-fluoropyridin-2-yl)ethoxy)-6-(1-(1-(methylimino)-1-oxidohexahydro-116-thiopyran-4-yl)-1H-pyrazol-4-yl)pyrazolo[1,5-a]pyridine-3-carbonitrile] | 1.6 | 0.15 | 1 | 0.45 | 0.15 | 0.15 |
| Cc1c(-c2cc(O[C@H](C)c3ccc(F)cn3)c3c(C#N)cnn3c2)cnn1[C@H]1CCCN(C[C@H](O)CO)C1 [Compound 37, 6-(1-((S)-1-((S)-2,3-dihydroxypropyl)piperidin-3-yl)-5-methyl-1H-pyrazol-4-yl)-4-((R)-1-(5-fluoropyridin-2-yl)ethoxy)pyrazolo[1,5-a]pyridine-3-carbonitrile] | 5.6 | 0.3 | 1.6 | 1 | 0.5 | 0.5 |
| Cc1c(-c2cc(O[C@H](C)c3ccc(F)cn3)c3c(C#N)cnn3c2)nnn1[C@H]1CC[C@H](O)CC1 [Compound 59, 4-((R)-1-(5-fluoropyridin-2-yl)ethoxy)-6-(1-((1r,4R)-4-hydroxycyclohexyl)-5-methyl-1H-1,2,3-triazol-4-yl)pyrazolo[1,5-a]pyridine-3-carbonitrile] | 5.7 | 1 | 3 | 3 | 0.5 | 0.5 |
| Cc1c(-c2cc(O[C@H](CO)c3ccc(F)cn3)c3c(C#N)cnn3c2)cnn1[C@H]1CC[C@H](O)CC1 [Compound 65, 4-((S)-1-(5-fluoropyridin-2-yl)-2-hydroxyethoxy)-6-(1-((1r,4S)-4-hydroxycyclohexyl)-5-methyl-1H-pyrazol-4-yl)pyrazolo[1,5-a]pyridine-3-carbonitrile] | 21 | 3.5 | 10.6 | 9.5 | 3 | 3 |
| C[C@@H](Oc1cc(-c2cnn(C3CCN(C#N)CC3)c2N)cn2ncc(C#N)c12)c1ccc(F)cn1 [Compound 47, (R)-6-(5-amino-1-(1-cyanopiperidin-4-yl)-1H-pyrazol-4-yl)-4-(1-(5-fluoropyridin-2-yl)ethoxy)pyrazolo[1,5-a]pyridine-3-carbonitrile] | 4 | 0.4 | 1 | 1 | 0.3 | 0.3 |
| C[C@@H](Oc1cc(-c2cnn(CCO)c2N)cn2ncc(C#N)c12)c1ccc(F)cn1 [Compound 31, (R)-6-(5-amino-1-(2-hydroxyethyl)-1H-pyrazol-4-yl)-4-(1-(5-fluoropyridin-2-yl)ethoxy)pyrazolo[1,5-a]pyridine-3-carbonitrile] | 7 | 2 | 5.6 | 5 | 1 | 1 |
| Cc1c(-c2cc(O[C@H](C)c3ncccc3F)c3c(C#N)cnn3c2)cnn1C1CCNCC1 [Compound 9, (R)-4-(1-(3-fluoropyridin-2-yl)ethoxy)-6-(5-methyl-1-(piperidin-4-yl)-1H-pyrazol-4-yl)pyrazolo[1,5-a]pyridine-3-carbonitrile] | 7 | 0.5 | 1 | 1 | 0.3 | 0.3 |
| C[C@@H](Oc1cc(-c2ccc(N3CC[C@@H](O)[C@H](O)C3)nc2)cn2ncc(C#N)c12)c1ccc(F)cn1 [Compound 64, 6-(6-((3R,4R)-3,4-dihydroxypiperidin-1-yl)pyridin-3-yl)-4-((R)-1-(5-fluoropyridin-2-yl)ethoxy)pyrazolo[1,5-a]pyridine-3-carbonitrile] | 4 | 0.2 | 0.7 | 0.6 | 0.3 | – |
| Cc1c(-c2cc(OC(C)c3ccc(F)cn3)c3c(C#N)cnn3c2)cnn1[C@H]1CC[C@H](O)CC1 (some centres unmarked) [Compound 51, 4-(1-(5-fluoropyridin-2-yl)ethoxy)-6-(1-((1r,4r)-4-hydroxycyclohexyl)-5-methyl-1H-pyrazol-4-yl)pyrazolo[1,5-a]pyridine-3-carbonitrile] | 6.5 | 1 | 4 | 2 | 1 | 1 |
| Cc1c(-c2cc(OC(C)c3ccc(F)cn3)c3c(C#N)cnn3c2)cnn1[C@H]1CC[C@@H](O)CC1 (some centres unmarked) [Compound 52, 4-(1-(5-fluoropyridin-2-yl)ethoxy)-6-(1-((1s,4s)-4-hydroxycyclohexyl)-5-methyl-1H-pyrazol-4-yl)pyrazolo[1,5-a]pyridine-3-carbonitrile] | 6 | 1 | 3 | 2.4 | 0.7 | 0.7 |
| Cc1c(-c2cc(O[C@H](C)c3ccc(F)cn3)c3c(C#N)cnn3c2)cnn1[C@H]1CC[C@@](C)(O)CC1 [Compound 23, 4-((R)-1-(5-fluoropyridin-2-yl)ethoxy)-6-(1-((1s,4S)-4-hydroxy-4-methylcyclohexyl)-5-methyl-1H-pyrazol-4-yl)pyrazolo[1,5-a]pyridine-3-carbonitrile] | 4 | 0.6 | 2 | 1 | 0.4 | 0.4 |
| Cc1c(-c2cc(O[C@H](C)c3ccc(F)cn3)c3c(C#N)cnn3c2)cnn1C1CCN(C(=O)C2(N)CCC2)CC1 [Compound 43, (R)-6-(1-(1-(1-aminocyclobutane-1-carbonyl)piperidin-4-yl)-5-methyl-1H-pyrazol-4-yl)-4-(1-(5-fluoropyridin-2-yl)ethoxy)pyrazolo[1,5-a]pyridine-3-carbonitrile] | 9 | 1 | 3 | 3 | 1 | 1 |
| Cc1c(-c2cc(O[C@@H](C)c3ccc(F)cn3)c3c(C#N)cnn3c2)cnn1[C@H]1CC[C@@H](O)CC1 [Compound 50, 4-((S)-1-(5-fluoropyridin-2-yl)ethoxy)-6-(1-((1s,4R)-4-hydroxycyclohexyl)-5-methyl-1H-pyrazol-4-yl)pyrazolo[1,5-a]pyridine-3-carbonitrile] | 57 | 6 | 20 | 11 | 5.5 | 5.5 |
